# Several values for one entry are separate records, joined by “and”; a condition that tells them apart may be missing. Equal entries are not always repeated. Entries after “also recorded” stand apart in the source; their conditions may differ. Structures can show the parent of a compound that is named as a salt. Where two headings read alike, the source gives them in different places.
# Legend:
# Ramos tumor xenografts = assay: In vivo anti-tumor activity on Ramos tumor xenografts; set-up: species or system BALB/c nude mice; conditions: Q7D×3, i.v. (title: Q1D×1; i.v.)
# [1] = for % Deaths / D/T, # Deaths/Total Treated: Daudi or Ramos bearing mice
# Daudi tumor xenografts = assay: In vivo anti-tumor activity on Daudi tumor xenografts; conditions: for anti-tumor activity: Q5D×2 (days 20 and 25), 4.1 mg/kg/inj ADM and/or 630 mg/kg/inj 5E9
# EGF receptor = molecular target: T1, EGF receptor (Homo sapiens, UniProt P00533); assay: 125I-EGF competition radioisotope assay on A431 cells; format: binding; conditions: 4° C., 4 h
# T1 construct: endogenous in cells; host or cells: A431 cells
# Experimental: The retention of EGF binding activity after chemical coupling of ADM-HZN to EGF was determined by a competition radioisotope assay, using the A431 cell line. This cell line was derived from a […] and in our laboratory can bind between 1-4×10^7 molecules of EGF (results not shown). Cells, diluted in RPMI 1640 growth medium containing 10% FCS, were plated in 96-well microtiter plates (5×10^5 cells/well) 24 h before the assay. On the day of the assay, the A431 cells, which grow as an adherent cell population, were washed in DMEM containing 2% bovine serum albumin (hereafter referred to as buffer A). Cells (in triplicate) were incubated with 0.05 ml of 2-fold serially diluted EGF or EGF-ADM, and 0.05 ml of ^125 I-labeled EGF (50 ng/ml) diluted in buffer A (final volume: 0.1 ml/well). The cells were incubated at 4° C. for 4 h, and then washed 3 times with buffer A. The cells were removed from the 96-well plastic plates by solubilization with 1.0M NaOH, and the amount of cell-bound ^125 I-EGF was determined by counting on a LKB model 1272 gamma counter.
# [2] = N=1, Q1D×1, i.v., ADM 14 mg/kg/inj, cumulative 14
# [3] = N=1, Q2D×2, i.v., ADM 8 mg/kg/inj, cumulative 16
# [4] = N=1, Q2D×2, i.v., ADM 10 mg/kg/inj, cumulative 20
# [5] = N=1, Q2D×2, i.v., ADM 15 mg/kg/inj, cumulative 30
# [6] = N=1, Q3D×2, i.v., ADM 12 mg/kg/inj, cumulative 24
# [7] = N=1, Q3D×2, i.v., ADM 14 mg/kg/inj, cumulative 28
# [8] = N=1, Q3D×2, i.v., ADM 16 mg/kg/inj, cumulative 32
# [9] = N=1, Q4D×2, i.v., ADM 10 mg/kg/inj, cumulative 20
# [10] = N=1, Q4D×2, i.v., ADM 14 mg/kg/inj, cumulative 28
# [11] = N=1, Q4D×3, i.p., ADM 5 mg/kg/inj, cumulative 15
# [12] = N=1, Q5D×2, i.p., ADM 4.1 mg/kg/inj, cumulative 8.2
# [13] = N=1, Q5D×2, i.p., ADM 5.5 mg/kg/inj, cumulative 11
# [14] = N=1, Q7D×3, i.v., ADM 12 mg/kg/inj, cumulative 36
# [15] = N=1, Q8D×2, i.p., ADM 5 mg/kg/inj, cumulative 10
# [16] = N=1, Q8D×2, i.p., ADM 10 mg/kg/inj, cumulative 20
# [17] = N=1, Q8D×2, i.p., ADM 13 mg/kg/inj, cumulative 26
# [18] = N=2, Q2D×2, i.v., ADM 12 mg/kg/inj, cumulative 24
# [19] = N=2, Q4D×2, i.v., ADM 12 mg/kg/inj, cumulative 24
# [20] = N=3, Q1D×1, i.v., ADM 16 mg/kg/inj, cumulative 16
# [21] = N=3, Q7D×3, i.v., ADM 10 mg/kg/inj, cumulative 30
# [22] = N=3, Q7D×3, i.v., ADM 11 mg/kg/inj, cumulative 33
# [23] = N=4 experiments, Q1D×1, i.v., ADM 18 mg/kg/inj, cumulative 18
# [24] = Daudi-bearing mice, 5 mg/kg/inj, cum 10, Q8D×2, i.p.
# [25] = Daudi-bearing mice, 5 mg/kg/inj, cum 15, Q4D×3, i.p.
# [26] = Daudi-bearing mice, 5 mg/kg/inj, cum 15, Q7D×3, i.p.
# [27] = Daudi-bearing mice, 5 mg/kg/inj, cum 15, Q7D×3, i.v.
# [28] = Daudi-bearing mice, 10 mg/kg/inj, cum 30, Q7D×3, i.p.
# [29] = Daudi-bearing mice, 11 mg/kg/inj, cum 33, Q7D×3, i.v., hydrochloride, 11 mg/kg
# [30] = Daudi-bearing mice, 12 mg/kg/inj, cum 12, Q1D×1, i.v.
# [31] = Daudi-bearing mice, 13 mg/kg/inj, cum 26, Q8D×2, i.p.
# [32] = Daudi-bearing mice, 15 mg/kg/inj, cum 15, Q1D×1, i.v.
# [33] = Daudi-bearing mice, 18 mg/kg/inj, cum 18, Q1D×1, i.v.
# [34] = Daudi-bearing mice, 20 mg/kg/inj, cum 20, Q1D×1, i.v.
# [35] = Ramos-bearing mice, 16 mg/kg/inj, Q7D×3, i.v. (title: Q1D×1; i.v.)
# [36] = Ramos-bearing mice, 18 mg/kg/inj, Q7D×3, i.v. (title: Q1D×1; i.v.)
# [37] = 4.1 mg/kg/inj, cum 8.2, Q5D×2, i.p.
# [38] = 4.5 mg/kg/inj, cum 9, Q5D×2, i.p.
# [39] = 5 mg/kg/inj, cum 15, Q7D×3, i.v.
# [40] = 5.5 mg/kg/inj, cum 11, Q5D×2, i.p.
# [41] = 9 mg/kg/inj, cum 27, Q7D×3, i.v.
# [42] = 11 mg/kg/inj, cum 33, Q7D×3, i.v., hydrochloride
# [43] = 12 mg/kg/inj, cum 36, Q7D×3, i.v., hydrochloride
compound,measurement,setting,value
"COc1cccc2c1C(=O)c1c(O)c3c(c(O)c1C2=O)C[C@@](O)(C(=O)CO)C[C@@H]3O[C@H]1C[C@H](N)[C@H](O)[C@H](C)O1 [ADM-HCl, adriamycin hydrochloride]","CR, complete regressions",Ramos tumor xenografts; 16 mg/kg/inj,0
same,Cures,Ramos tumor xenografts; 16 mg/kg/inj,0
same,"T-C, delay to reach 3000 mm^3 vs untreated controls",Ramos tumor xenografts; 16 mg/kg/inj,5 days
same,"TDD, tumor doubling delay",Ramos tumor xenografts; 16 mg/kg/inj,0.3
same,"CR, complete regressions",Ramos tumor xenografts; 18 mg/kg/inj,0
same,Cures,Ramos tumor xenografts; 18 mg/kg/inj,0
same,"T-C, delay to reach 3000 mm^3 vs untreated controls",Ramos tumor xenografts; 18 mg/kg/inj,8 days
same,"TDD, tumor doubling delay",Ramos tumor xenografts; 18 mg/kg/inj,0.5
same,% Deaths,[1]; [2],0%
same,"D/T, # Deaths/Total Treated",[1]; [2],0/8
same,% Deaths,[1]; [3],20%
same,"D/T, # Deaths/Total Treated",[1]; [3],1/5
same,% Deaths,[1]; [4],60%
same,"D/T, # Deaths/Total Treated",[1]; [4],3/5
same,% Deaths,[1]; [5],100%
same,"D/T, # Deaths/Total Treated",[1]; [5],7/7
same,% Deaths,[1]; [6],75%
same,"D/T, # Deaths/Total Treated",[1]; [6],6/8
same,% Deaths,[1]; [7],88%
same,"D/T, # Deaths/Total Treated",[1]; [7],7/8
same,% Deaths,[1]; [8],100%
same,"D/T, # Deaths/Total Treated",[1]; [8],8/8
same,% Deaths,[1]; [9],25%
same,"D/T, # Deaths/Total Treated",[1]; [9],2/8
same,% Deaths,[1]; [10],86%
same,"D/T, # Deaths/Total Treated",[1]; [10],6/7
same,% Deaths,[1]; [11],67%
same,"D/T, # Deaths/Total Treated",[1]; [11],6/9
same,% Deaths,[1]; [12],20%
same,"D/T, # Deaths/Total Treated",[1]; [12],1/5
same,% Deaths,[1]; [13],0%
same,"D/T, # Deaths/Total Treated",[1]; [13],0/8
same,% Deaths,[1]; [14],50%
same,"D/T, # Deaths/Total Treated",[1]; [14],4/8
same,% Deaths,[1]; [15],38%
same,"D/T, # Deaths/Total Treated",[1]; [15],3/8
same,% Deaths,[1]; [16],100%
same,"D/T, # Deaths/Total Treated",[1]; [16],8/8
same,% Deaths,[1]; [17],100%
same,"D/T, # Deaths/Total Treated",[1]; [17],7/7
same,% Deaths,[1]; [18],83%
same,"D/T, # Deaths/Total Treated",[1]; [18],10/12
same,% Deaths,[1]; [19],47%
same,"D/T, # Deaths/Total Treated",[1]; [19],7/15
same,% Deaths,[1]; [20],10%
same,"D/T, # Deaths/Total Treated",[1]; [20],3/31
same,% Deaths,[1]; [21],0%
same,"D/T, # Deaths/Total Treated",[1]; [21],0/24
same,% Deaths,[1]; [22],15%
same,"D/T, # Deaths/Total Treated",[1]; [22],4/26
same,% Deaths,[1]; [23],44%
same,"D/T, # Deaths/Total Treated",[1]; [23],14/32
same,"D/T, deaths/total animals","[1]; Daudi-bearing mice, 4.1 mg/kg/inj, cum 8.2, Q5D×2, i.p.",1/5
same,"D/T, deaths/total animals","[1]; Daudi-bearing mice, 4.5 mg/kg/inj, cum 9, Q5D×2, i.p., hydrochloride, 4.5 mg/kg",0/5 and 0/8
same,"D/T, deaths/total animals",[1]; [24],3/8
same,"Toxicity (%), deaths",[1]; [24],37%
same,"D/T, deaths/total animals",[1]; [25],6/9
same,"Toxicity (%), deaths",[1]; [25],67%
same,"D/T, deaths/total animals",[1]; [26],6/9
same,"Toxicity (%), deaths",[1]; [26],67%
same,"D/T, deaths/total animals",[1]; [27],1/9
same,"Toxicity (%), deaths",[1]; [27],11%
same,"D/T, deaths/total animals","[1]; Daudi-bearing mice, 5.5 mg/kg/inj, cum 11, Q5D×2, i.p.",0/8
same,"D/T, deaths/total animals","[1]; Daudi-bearing mice, 9 mg/kg/inj, cum 27, Q7D×3, i.v.",0/10
same,"D/T, deaths/total animals","[1]; Daudi-bearing mice, 10 mg/kg/inj, cum 20, Q8D×2, i.p.",8/8
same,"D/T, deaths/total animals",[1]; [28],8/8
same,"Toxicity (%), deaths",[1]; [28],100%
same,"D/T, deaths/total animals","[1]; Daudi-bearing mice, 10 mg/kg/inj, cum 30, Q7D×3, i.v., hydrochloride, 10 mg/kg",0/8 and 0/7
same,"D/T, deaths/total animals",[1]; [29],2/8 and 2/10 and 0/8
same,"Toxicity (%), deaths",[1]; [29],25% and 20%
same,"D/T, deaths/total animals",[1]; [30],7/7
same,"Toxicity (%), deaths",[1]; [30],100%
same,"Toxicity (%), deaths","[1]; Daudi-bearing mice, 12 mg/kg/inj, cum 36, Q7D×3, i.v.",50%
same,"D/T, deaths/total animals","[1]; Daudi-bearing mice, 12 mg/kg/inj, cum 36, Q7D×3, i.v., hydrochloride, 12 mg/kg",4/8 and 2/8
same,"D/T, deaths/total animals",[1]; [31],7/7
same,"Toxicity (%), deaths",[1]; [31],100%
same,"D/T, deaths/total animals",[1]; [32],7/7
same,"Toxicity (%), deaths",[1]; [32],100%
same,"D/T, deaths/total animals",[1]; [33],6/8
same,"Toxicity (%), deaths",[1]; [33],75%
same,"D/T, deaths/total animals",[1]; [34],7/7
same,"Toxicity (%), deaths",[1]; [34],100%
same,MTD (maximum tolerated dose),"[1]; Q7D×3, i.v.",11 mg/kg/inj
same,"D/T, deaths/total animals",[1]; [35],1/8
same,"Toxicity (%), deaths (lethality)",[1]; [35],12%
same,"D/T, deaths/total animals",[1]; [36],2/8
same,"Toxicity (%), deaths (lethality)",[1]; [36],25%
same,MTD (maximum tolerated dose),[1]; i.p.,4-5 mg/kg/inj
same,"CR, complete regressions",Daudi tumor xenografts; [37],0
same,Cures,Daudi tumor xenografts; [37],0
same,"T-C, delay to reach 3000 mm^3 vs untreated controls",Daudi tumor xenografts; [37],0 days
same,"TDD, tumor doubling delay",Daudi tumor xenografts; [37],0
same,"CR, complete regressions",Daudi tumor xenografts; [38],0
same,Cures,Daudi tumor xenografts; [38],0
same,"T-C, delay to reach 3000 mm^3 vs untreated controls",Daudi tumor xenografts; [38],2.2 days
same,"CR, complete regressions",Daudi tumor xenografts; [39],2
same,Cures,Daudi tumor xenografts; [39],0
same,"T-C, delay to reach 3000 mm^3 vs untreated controls",Daudi tumor xenografts; [39],6.2 days
same,"TDD, tumor doubling delay",Daudi tumor xenografts; [39],0.18
same,"CR, complete regressions",Daudi tumor xenografts; [40],0
same,Cures,Daudi tumor xenografts; [40],0
same,"T-C, delay to reach 3000 mm^3 vs untreated controls",Daudi tumor xenografts; [40],2.2 days
same,"TDD, tumor doubling delay",Daudi tumor xenografts; [40],.1
same,"CR, complete regressions",Daudi tumor xenografts; [41],0
same,Cures,Daudi tumor xenografts; [41],1
same,"T-C, delay to reach 3000 mm^3 vs untreated controls",Daudi tumor xenografts; [41],23 days
same,"TDD, tumor doubling delay",Daudi tumor xenografts; [41],0.9
same,"CR, complete regressions","Daudi tumor xenografts; 10 mg/kg/inj, cum 30, Q7D×3, i.v.",0
same,"TDD, tumor doubling delay","Daudi tumor xenografts; 10 mg/kg/inj, cum 30, Q7D×3, i.v., hydrochloride",0.7 and 0.8
same,"T-C, delay to reach 3000 mm^3 vs untreated controls",Daudi tumor xenografts; [42],28 days and > 42 days and 21 days
same,"TDD, tumor doubling delay",Daudi tumor xenografts; [42],1.1 and > 1.3 and 0.7 and > 1.1
same,Cures,"Daudi tumor xenografts; 12 mg/kg/inj, cum 36, Q7D×3, i.v.",3
same,"T-C, delay to reach 3000 mm^3 vs untreated controls",Daudi tumor xenografts; [43],> 62 days and > 33 days
same,"TDD, tumor doubling delay",Daudi tumor xenografts; [43],> 2.0 and > 1.5
same,anti-tumor activity,"Daudi tumor xenografts; i.p., hydrochloride",no anti-tumor activity
same,anti-tumor activity,"Daudi tumor xenografts; i.p., listed as ADM, hydrochloride",inactive
same,growth inhibition of Daudi tumor xenografts,"Daudi tumor xenografts; Q7D×3, i.v., 9, 10 or 11 mg/kg/injection",significantly inhibited in a dose dependent fashion
same,anti-tumor activity at MTD,"Daudi tumor xenografts; i.p. route, MTD",inactive
"EGF-ADM: SPDP-thiolated murine EGF reacted with ADM-HZN, 13-keto acylhydrazone linker","inhibition of 125I-EGF binding, binding activity vs unconjugated EGF",EGF receptor,only a small loss in binding activity; also recorded: retention of binding activity

# Source: patent US5122368A, “Anthracycline conjugates having a novel linker and methods for their production” (Bristol-Myers Squibb Company, priority 1989, dated 1992)
